In PubChem BioAssay (NCI):
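A five-concentration, 48-hour dose response in 96-well plates underlies each endpoint, interpolated linearly between surrounding concentrations. GI50: concentration for 50% inhibition of growth. The concentration for full growth arrest is given as TGI.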

Columns and labels:
Assay in all cases: DTP human tumour cell line panel, 48 h
786-0 renal = test system: 786-0 renal
A498 renal = test system: A498 renal
A549 NSCLC = test system: A549 NSCLC
ACHN renal = test system: ACHN renal
BT-549 breast = test system: BT-549 breast
CAKI-1 renal = test system: CAKI-1 renal
CCRF-CEM leukemia = test system: CCRF-CEM leukemia
COLO 205 colon = test system: COLO 205 colon
DU-145 prostate = test system: DU-145 prostate
EKVX NSCLC = test system: EKVX NSCLC
HCC-2998 colon = test system: HCC-2998 colon
HCT-116 colon = test system: HCT-116 colon
HCT-15 colon = test system: HCT-15 colon
HL-60(TB) leukemia = test system: HL-60(TB) leukemia
HOP-62 NSCLC = test system: HOP-62 NSCLC
HOP-92 NSCLC = test system: HOP-92 NSCLC
HS 578T breast = test system: HS 578T breast
HT29 colon = test system: HT29 colon
IGROV1 ovarian = test system: IGROV1 ovarian
K-562 leukemia = test system: K-562 leukemia
KM12 colon = test system: KM12 colon
LOX IMVI melanoma = test system: LOX IMVI melanoma
MALME-3M melanoma = test system: MALME-3M melanoma
MCF7 breast = test system: MCF7 breast
MDA-MB-231 breast = test system: MDA-MB-231 breast
MDA-MB-435 = test system: MDA-MB-435
MOLT-4 leukemia = test system: MOLT-4 leukemia
NCI-H23 lung = test system: NCI-H23 lung
NCI-H460 lung = test system: NCI-H460 lung
NCI-H522 lung = test system: NCI-H522 lung
NCI/ADR-RES ovarian = test system: NCI/ADR-RES ovarian
OVCAR-3 ovarian = test system: OVCAR-3 ovarian
OVCAR-4 ovarian = test system: OVCAR-4 ovarian
OVCAR-5 ovarian = test system: OVCAR-5 ovarian
OVCAR-8 ovarian = test system: OVCAR-8 ovarian
PC-3 prostate = test system: PC-3 prostate
RPMI-8226 leukemia = test system: RPMI-8226 leukemia
RXF 393 renal = test system: RXF 393 renal
SF-268 CNS = test system: SF-268 CNS
SF-295 CNS = test system: SF-295 CNS
SF-539 CNS = test system: SF-539 CNS
SK-MEL-2 melanoma = test system: SK-MEL-2 melanoma
SK-MEL-28 melanoma = test system: SK-MEL-28 melanoma
SK-MEL-5 melanoma = test system: SK-MEL-5 melanoma
SK-OV-3 ovarian = test system: SK-OV-3 ovarian
SN12C renal = test system: SN12C renal
SNB-19 CNS = test system: SNB-19 CNS
SNB-75 CNS = test system: SNB-75 CNS
SR leukemia = test system: SR leukemia
T-47D breast = test system: T-47D breast
TK-10 renal = test system: TK-10 renal
U251 CNS = test system: U251 CNS
UACC-257 melanoma = test system: UACC-257 melanoma
UACC-62 melanoma = test system: UACC-62 melanoma
UO-31 renal = test system: UO-31 renal

For `CCOC(=O)c1ccc2c(c1)nc(-c1ccc(Cl)cc1)n2-c1cc(C(C)(C)C)[nH]n1`, the GI50 (786-0 renal) was 3.17 µM, the TGI (786-0 renal) was > 100 µM and the GI50 (A498 renal) was 2.19 µM. The TGI (A498 renal) was 6.51 µM, the GI50 (A549 NSCLC) was 3.13 µM and the TGI (A549 NSCLC) was > 100 µM. For the same compound, the GI50 (ACHN renal) was 3.28 µM, the TGI (ACHN renal) was 10.1 µM and the GI50 (BT-549 breast) was 2.88 µM. The TGI (BT-549 breast) was 8.4 µM, the GI50 (CAKI-1 renal) was 2.77 µM and the TGI (CAKI-1 renal) was > 100 µM. It also gave a GI50 (CCRF-CEM leukemia) of 3.06 µM, a TGI (CCRF-CEM leukemia) of 34.1 µM and a GI50 (COLO 205 colon) of 2.23 µM. For the same compound, the TGI (COLO 205 colon) was 4.75 µM, the GI50 (DU-145 prostate) was 2.85 µM and the GI50 (EKVX NSCLC) was 3.02 µM. The TGI (EKVX NSCLC) was > 100 µM, the GI50 (HCC-2998 colon) was 3.03 µM and the TGI (HCC-2998 colon) was 16.2 µM. For the same compound, the GI50 (HCT-116 colon) was 3.12 µM, the TGI (HCT-116 colon) was 29.9 µM and the GI50 (HCT-15 colon) was 3.27 µM. The TGI (HCT-15 colon) was > 100 µM, the GI50 (HL-60(TB) leukemia) was 3.65 µM and the TGI (HL-60(TB) leukemia) was 9.2 µM. The GI50 (HOP-62 NSCLC) was 3.69 µM, the TGI (HOP-62 NSCLC) was > 100 µM and the GI50 (HOP-92 NSCLC) was 1.02 µM. The TGI (HOP-92 NSCLC) was 4.79 µM, the GI50 (HS 578T breast) was 2.76 µM and the TGI (HS 578T breast) was 8.57 µM. For the same compound, the GI50 (HT29 colon) was 2.79 µM, the TGI (HT29 colon) was 7.17 µM and the GI50 (IGROV1 ovarian) was 3.77 µM. For the same compound, the TGI (IGROV1 ovarian) was > 100 µM, the GI50 (K-562 leukemia) was 2.72 µM and the TGI (K-562 leukemia) was 16.1 µM. The GI50 (KM12 colon) was 2.78 µM, the TGI (KM12 colon) was 14.2 µM and the GI50 (LOX IMVI melanoma) was 2.73 µM. It also gave a TGI (LOX IMVI melanoma) of 10.8 µM, a GI50 (MALME-3M melanoma) of 2.75 µM and a TGI (MALME-3M melanoma) of 9.18 µM. It also gave a GI50 (MCF7 breast) of 2.78 µM, a TGI (MCF7 breast) of 12.2 µM and a GI50 (MDA-MB-231 breast) of 4.2 µM. It also gave a TGI (MDA-MB-231 breast) of 40.8 µM, a GI50 (MDA-MB-435) of 0.717 µM and a TGI (MDA-MB-435) of 7.1 µM. The GI50 (MOLT-4 leukemia) was 3.28 µM, the TGI (MOLT-4 leukemia) was 30.4 µM and the GI50 (NCI-H23 lung) was 2.72 µM. The TGI (NCI-H23 lung) was > 100 µM, the GI50 (NCI-H460 lung) was 2.94 µM and the TGI (NCI-H460 lung) was 8.02 µM. It also gave a GI50 (NCI-H522 lung) of 2.52 µM, a TGI (NCI-H522 lung) of 6.66 µM and a GI50 (NCI/ADR-RES ovarian) of 2.13 µM. It also gave a TGI (NCI/ADR-RES ovarian) of 6.65 µM, a GI50 (OVCAR-3 ovarian) of 2.05 µM and a TGI (OVCAR-3 ovarian) of 5.65 µM. The GI50 (OVCAR-4 ovarian) was 3.64 µM, the TGI (OVCAR-4 ovarian) was > 100 µM and the GI50 (OVCAR-5 ovarian) was 3.68 µM. For the same compound, the TGI (OVCAR-5 ovarian) was > 100 µM, the GI50 (OVCAR-8 ovarian) was 2.55 µM and the TGI (OVCAR-8 ovarian) was 12.7 µM. For the same compound, the GI50 (PC-3 prostate) was 2.82 µM, the TGI (PC-3 prostate) was > 100 µM and the GI50 (RPMI-8226 leukemia) was 2.99 µM. It also gave a TGI (RPMI-8226 leukemia) of 22.9 µM, a GI50 (RXF 393 renal) of 1.81 µM and a TGI (RXF 393 renal) of 5.87 µM. The GI50 (SF-268 CNS) was 3.13 µM, the TGI (SF-268 CNS) was 13.8 µM and the GI50 (SF-295 CNS) was 2.62 µM. It also gave a TGI (SF-295 CNS) of 11.4 µM, a GI50 (SF-539 CNS) of 2.16 µM and a TGI (SF-539 CNS) of 4.99 µM. For the same compound, the GI50 (SK-MEL-2 melanoma) was 1.93 µM, the TGI (SK-MEL-2 melanoma) was 4.4 µM and the GI50 (SK-MEL-28 melanoma) was 2.49 µM. It also gave a TGI (SK-MEL-28 melanoma) of 12.2 µM, a GI50 (SK-MEL-5 melanoma) of 1.33 µM and a TGI (SK-MEL-5 melanoma) of 3.39 µM. It also gave a GI50 (SK-OV-3 ovarian) of 3.43 µM, a TGI (SK-OV-3 ovarian) of 36.9 µM and a GI50 (SN12C renal) of 3.33 µM. The TGI (SN12C renal) was 40.6 µM, the GI50 (SNB-19 CNS) was 3.32 µM and the TGI (SNB-19 CNS) was > 100 µM. For the same compound, the GI50 (SNB-75 CNS) was 2.53 µM, the TGI (SNB-75 CNS) was > 100 µM and the GI50 (SR leukemia) was 0.635 µM. The TGI (SR leukemia) was 8.16 µM, the GI50 (T-47D breast) was 3.78 µM and the TGI (T-47D breast) was > 100 µM. For the same compound, the GI50 (TK-10 renal) was 3.62 µM, the TGI (TK-10 renal) was > 100 µM and the GI50 (U251 CNS) was 3.04 µM. The TGI (U251 CNS) was > 100 µM, the GI50 (UACC-257 melanoma) was 3.41 µM and the TGI (UACC-257 melanoma) was > 100 µM. It also gave a GI50 (UACC-62 melanoma) of 1.67 µM, a TGI (UACC-62 melanoma) of 4 µM and a GI50 (UO-31 renal) of 2.76 µM. The TGI (UO-31 renal) was 45.7 µM.
